Type in all cases: cell-based
Test [1] concerns Alternaria sp. The test can be described thus: Antifungal growth assay on PDA agar supplemented with peptide (spore count, mycelium area). Conditions: respectively. How it is done: (§1) a) Evaluation of Peptides obtained in E coli: Isolates from Botrytis cinerea, Fusarium oxysporum, Trichoderma harzianum and Alternaria spp. were treated with the purified fractions of the digested and non-digested peptides (pre-TEV/rAp-S and rAp-S) derived from the selected recombinant clone of E. coli (Example 3).
(§2) The potential antifungal abilities of both peptides were evaluated by analysis of the growth patterns of these fungi on agar PDA (potato-dextrose) in Petri dishes supplemented with protein extracts at 500 μg/L (162 nM) and 250 μg/L (81 nM), respectively.
(§3) The control growth assays were performed on PDA dishes without peptides. The growth patterns were evaluated according the amount of time required for the fungi to reach the dish walls in the control plates (10 days after inoculation in darkness at room temperature). Structural images of the fungi hyphae patterns were obtained using a Olympus® microscope (Center Valley, Pa., USA), and spores were counted using a Neubauer […] (Brand®, Wertheim, Germany) at 40×. The data were subjected to analyses of variance, and averages were separated by the least significant difference test (LSD) at the 5% level of significance using Statgraphics Centurion XV (Manμistics Inc., Rockville, Md., USA). Petri dishes containing grown fungi were scanned and digitalized for statistical processing. The area of the mycelia was quantified using Gel-Pro Analyzer 4.0 (Media Cybernetics, Minneapolis, Minn., USA), and surface values in pixels were transferred to Excel (Microsoft Corporation, USA) for analysis. The average value of the colored haloes was calculated using scanned images of five repetitions on the tenth day after inoculation. The collected data were subjected to variance analysis, and the averages separated by LSD at the 5% level of significance.

For test [2], the system named is Botrytis cinerea. The test is described as above. Conditions: respectively. How it is done:
as §1, §2, §3

The test system of test [3] is Fusarium oxysporum. The test is described as above. Conditions: respectively. How it is done: as §1, §2, §3
For test [4], the system named is Trichoderma harzianum. The description is as above. Conditions: respectively. How it is done: as §1, §2, §3
In test [5] the test system is Clavibacter michiganensis. The test can be described thus: Growth inhibition assay at different concentrations of peptide rAp-S (specific growth rate, OD600). As to conditions: control 0.072. How it is done:
(§4) Growth Inhibition Assays at Different Concentrations of Peptide rAp-S: The inoculation of 5 mL of LB was performed with 100 μL of bacteria (Xanthomona campestris and Clavibacter michiganensis), followed by overnight culturing. The absorbance was quantified at OD600. Once the Abs was quantified, dilutions were made to obtain an Abs to inoculate each tube with the same concentration of bacteria with an initial OD600 of 0.04. Different peptide concentrations were used. A final volume of 10 mL in a 50 mL tube was used. In addition, a control without peptide was used for each bacterium. The kinetics of the process was followed for 8 h from time zero, determining the Abs every 2 h. The data were logarithmically transformed for the exponential phase of kinetics, and a linear regression was performed on the transformed data. The slope of the regression is the specific growth rate of the bacteria: μ (h^−1).

The test system of test [6] is Xanthomona campestris. The test is described as above. Conditions: control 0.385. How it is done:
as §4

Where [7] appears, read: PDA supplemented with pre-TEV/rAp-S 500 μg/L (162 nM) and rAp-S 250 μg/L (81 nM), 10 days after inoculation.
Setting [8] is: PDA supplemented with pre-TEV/rAp-S 500 μg/L and rAp-S 250 μg/L, tenth day after inoculation.

Regarding “rAp-S: recombinant version of antimicrobial peptide Ap-S, 31 amino acids MPVGIVIAPKKSPFTAKKPGPVLSGVKAGPG (SEQ ID No. 9), released by TEV protease digestion (listed as Argopecten purpuratus)”, the “Spore count, Average” value in test [1] (setting [7]) is 0; in test [2] (setting [7]) it was 1.02 × 10^6; in test [3] (setting [7]), 7.6 × 10^5; in test [4] (setting [7]), 5.0 × 10^6. In addition, the “Central area of the mycelium, Average” value in test [1] (setting [8]) amounted to 412403 pixeles; in test [2] (setting [8]), 170781 pixeles; in test [3] (setting [8]) it was 511699 pixeles; in test [4] (setting [8]), 85718 pixeles. Also, the “Specific growth rate μ” value in test [5] (peptide 1 μg/L) came out at 0.070 h⁻¹; in test [5] (peptide 10 μg/L) it was 0.069 h⁻¹; in test [5] (peptide 100 μg/L), 0.075 h⁻¹; in test [5] (peptide 1 mg/L), 0.069 h⁻¹; in test [5] (peptide 2 mg/L), 0.069 h⁻¹; in test [5] (peptide 3 mg/L) it was 0.073 h⁻¹. For the same substance, the “Specific growth rate μ” value in test [5] (peptide 4 mg/L) was determined as 0.066 h⁻¹; in test [5] (peptide 12.5 mg/L), 0.009 h⁻¹; in test [5] (peptide 15.5 mg/L) it was 0.003 h⁻¹; in test [6] (peptide 1 μg/L), 0.371 h⁻¹; in test [6] (peptide 10 μg/L) it was 0.375 h⁻¹; in test [6] (peptide 100 μg/L) it was 0.386 h⁻¹. The “Specific growth rate μ” value is 0.329 h⁻¹ in test [6] (peptide 1 mg/L), 0.015 h⁻¹ in test [6] (peptide 2 mg/L), -0.012 h⁻¹ in test [6] (peptide 3 mg/L) and -0.019 h⁻¹ in test [6] (peptide 4 mg/L).

The record behind these values is patent US10597430B2, “Chimeric gene for heterologous expression which encodes for peptides with antimicrobial activity” (Instituto de Investigaciones Agropecuarias, priority 2013, dated 2020).
